Reference: patent US20260274866A1, “PYRIDO[4,3-D]PYRIMIDINE DERIVATIVES AS MUTANT KRAS G12C INHIBITORS FOR THE TREATMENT OF CANCER” (Frontier Medicines Corporation, priority 2023, published 2026)

Biological target: T1, KRAS G12C (GMPPNP-loaded) and cRAF (Ras-binding domain) interaction (Homo sapiens, UniProt P01116, C118S/C51S/C80L/G12C)
T1 construct: truncated version comprising amino acids 1-169
Experiment: AlphaScreen inhibition of KRAS G12C and cRAF binding
Assay type: biochemical
Settings: KRAS G12C preloaded with GTP analogue GMPPNP, 2 hours preincubation
Experimental: The AlphaScreen technology was used to determine IC50s for compound inhibition of KRAS G12C (present as the Cys-light (C51S, C80L and C118S), truncated version comprising amino acids 1-169) and cRAF interaction. Compounds were diluted in 100% DMSO and each compound concentration was spotted at 200 nl/well onto low volume, white 384 well plates. The KRAS G12C contained a biotin-AviTag and the cRaf, as Ras-binding domain (amino acids 50-131, RBD), was GST-tagged. KRAS G12C was preloaded with the GTP analogue Guanosine 5′-[β,γ-imido]triphosphate (GMPPNP). The KRAS G12C was diluted in 25 mM Hepes, pH 7.4, 150 mM NaCl, 5 mM MgCl2, 0.01% TritonX-100 and 10 μM GMPPNP and added at 10 ul/well to compound-spotted plates resulting in a DMSO concentration of 2%. Plates were incubated for 2 hours. A mixture of RBD and the AlphaScreen streptavidin donor and glutathione acceptor beads diluted in 25 mM Hepes, pH 7.4, 150 mM NaCl, 5 mM MgCl2, 0.01% TritonX-100 and 2% DMSO was then added at 10 ul/well and incubated for 60-90 minutes before the samples were read for emission at 570 nm after excitation of the donor beads at 680 nm. All incubations were performed at room temperature. The final top compound concentration was 50 μM with 1:3 titrations for 10-point dose response curves. Final assay conditions were 0.5 nM KRAS G12C, 0.75 nM RBD and 5 ug/ml each of AlphaScreen donor and acceptor beads. IC50s were determined using nonlinear regression fit of [inhibitor] vs. response (4 parameters).
A counter assay was also set up to rule out inhibitors of the AlphaScreen technology itself. Compound plates were incubated for 2 hours as above with buffer only. The AlphaScreen beads were added as above except biotin-AviTag-GST was substituted for the RBD. Samples were read and analyzed as above.

T1 sequence (P01116 1-169 isoform P01116-2 G12C/C51S/C80L/C118S): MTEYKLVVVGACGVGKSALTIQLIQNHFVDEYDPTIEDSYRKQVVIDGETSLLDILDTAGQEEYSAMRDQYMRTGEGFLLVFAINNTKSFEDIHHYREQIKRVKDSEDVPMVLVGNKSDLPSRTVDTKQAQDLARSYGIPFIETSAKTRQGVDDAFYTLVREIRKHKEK

Row | IC50 [µM] | Compound
1 | 0.1 to 0.5 | C[C@H](/C=C/C(=O)N1CC[C@@H](N(C)c2nc(OC[C@@]34CCCN3C[C@H](F)C4)nc3c(F)c(-c4cccc5cccc(Cl)c45)ncc23)C1)N(C)C [Compound 1]
2 | < 0.01 | C[C@@H](/C=C/C(=O)N1CC[C@@H](N(C)c2nc(OC[C@@]34CCCN3C[C@H](F)C4)nc3c(F)c(-c4cccc5cccc(Cl)c45)ncc23)C1)N(C)C [Compound 2]
3 | 0.01 to 0.1 | CC(/C=C/C(=O)N1CCN(c2nc(OCC34CCCN3CCC4)nc3c2CCN(c2cccc4cccc(Cl)c24)C3)C[C@@H]1CC#N)N1CCOCC1 (stereo partly drawn) [Compound 3]
4 | < 0.01 | C[C@H](/C=C/C(=O)N1CCN(c2nc(OCC34CCCN3CCC4)nc3c2CCN(c2cccc4cccc(Cl)c24)C3)C[C@@H]1CC#N)N(C)C [Compound 4]
5 | 0.01 to 0.1 | C[C@@H](/C=C/C(=O)N1CCN(c2nc(OCC34CCCN3CCC4)nc3c2CCN(c2cccc4cccc(Cl)c24)C3)C[C@@H]1CC#N)N(C)C [Compound 5]
6 | 0.1 to 0.5 | C[C@H](/C=C/C(=O)N1CC[C@@H](N(C)c2nc(OC[C@@]34CCCN3C[C@H](F)C4)nc3c(F)c(-c4cccc5ccc(F)c(Cl)c45)ncc23)C1)N(C)C [Compound 6]
7 | 0.1 to 0.5 | C[C@H](/C=C/C(=O)N1CC[C@@H](N(C)c2nc(OC[C@@]34CCCN3C[C@H](F)C4)nc3c(F)c(-c4cccc5ccc(F)c(F)c45)ncc23)C1)N(C)C [Compound 7, (R,E)-1-((R)-3-((7-(7,8-difluoronaphthalen-1-yl)-8-fluoro-2-(((2R,7aS)-2-fluorotetrahydro-1H-pyrrolizin-7a(5H)-yl)methoxy)pyrido[4,3-d]pyrimidin-4-yl)(methyl)amino)pyrrolidin-1-yl)-4-(dimethylamino)pent-2-en-1-one]
8 | 0.01 to 0.1 | C[C@@H](/C=C/C(=O)N1C[C@H](F)[C@@H](N(C)c2nc(OC[C@@]34CCCN3C[C@H](F)C4)nc3c(F)c(-c4cccc5cccc(Cl)c45)ncc23)C1)N(C)C [Compound 8]
9 | 0.01 to 0.1 | C[C@H](/C=C/C(=O)N1C[C@H](F)[C@@H](N(C)c2nc(OC[C@@]34CCCN3C[C@H](F)C4)nc3c(F)c(-c4cccc5cccc(Cl)c45)ncc23)C1)N(C)C [Compound 9]
10 | < 0.01 | C[C@@H](/C=C/C(=O)N1CC[C@@H](N(C)c2nc(OC[C@@]34CCCN3C[C@H](F)C4)nc3c(F)c(-c4cccc5ccc(F)c(F)c45)ncc23)C1)N(C)C [Compound 10, (S,E)-1-((R)-3-((7-(7,8-difluoronaphthalen-1-yl)-8-fluoro-2-(((2R,7aS)-2-fluorotetrahydro-1H-pyrrolizin-7a(5H)-yl)methoxy)pyrido[4,3-d]pyrimidin-4-yl)(methyl)amino)pyrrolidin-1-yl)-4-(dimethylamino)pent-2-en-1-one]
11 | 0.01 to 0.1 | CC(/C=C/C(=O)N1CCN(c2nc(OC[C@@]34CCCN3C[C@H](F)C4)nc3c(F)c(-c4cccc5cccc(Cl)c45)ncc23)C[C@@H]1CC#N)N1CCOCC1 (stereo partly drawn) [Compound 11]
12 | 0.01 to 0.1 | C[C@H](/C=C/C(=O)N1CC[C@@H](N(C)c2nc(OC[C@@]34CCCN3C[C@H](F)C4)nc3c(F)c(-c4cccc5cccc(Cl)c45)ncc23)C1)N1CCC1 [Compound 12]
13 | < 0.01 | CO[C@H]1CCN(C(C)/C=C/C(=O)N2CCN(c3nc(OC[C@@]45CCCN4C[C@H](F)C5)nc4c(F)c(-c5cccc6ccc(F)c(Cl)c56)ncc34)C[C@@H]2CC#N)C1 (stereo partly drawn) [Compound 13]
14 | < 0.01 | CO[C@@H]1CCN(C(C)/C=C/C(=O)N2CCN(c3nc(OC[C@@]45CCCN4C[C@H](F)C5)nc4c(F)c(-c5cccc6ccc(F)c(Cl)c56)ncc34)C[C@@H]2CC#N)C1 (stereo partly drawn) [Compound 14]
15 | 0.01 to 0.1 | CC(/C=C/C(=O)N1CCN(c2nc(OC[C@@]34CCCN3C[C@H](F)C4)nc3c(F)c(-c4cccc5cccc(Cl)c45)ncc23)C[C@@H]1CC#N)N1C[C@@H]2C[C@H]1CO2 (stereo partly drawn) [Compound 15]
16 | 0.01 to 0.1 | CC(/C=C/C(=O)N1CCN(c2nc(OC[C@@]34CCCN3C[C@H](F)C4)nc3c(F)c(-c4cccc5cccc(Cl)c45)ncc23)C[C@@H]1CC#N)N1C[C@H]2C[C@@H]1CO2 (stereo partly drawn) [Compound 16]
17 | < 0.01 | CC(/C=C/C(=O)N1CCN(c2nc(OC[C@@]34CCCN3C[C@H](F)C4)nc3c(F)c(-c4cccc5cccc(Cl)c45)ncc23)C[C@@H]1CC#N)N1[C@@H]2CC[C@H]1COC2 (stereo partly drawn) [Compound 17]
18 | ≥ 0.5 | C[C@@H](/C=C/C(=O)N1CC[C@@H](N(C)c2nc(OC[C@@]34CCCN3C[C@H](F)C4)nc3c(F)c(-c4cccc5ccc(F)c(Cl)c45)ncc23)C1)N(C)C [Compound 18]
19 | 0.01 to 0.1 | CO[C@H]1CCN([C@@H](C)/C=C/C(=O)N2CCN(c3nc(OC[C@@]45CCCN4C[C@H](F)C5)nc4c(F)c(-c5cccc6ccc(F)c(Cl)c56)ncc34)C[C@@H]2CC#N)C1 [Compound 19, 2-((S)-4-(7-(8-chloro-7-fluoronaphthalen-1-yl)-8-fluoro-2-(((2R,7aS)-2-fluorotetrahydro-1H-pyrrolizin-7a(5H)-yl)methoxy)pyrido[4,3-d]pyrimidin-4-yl)-1-((S,E)-4-((S)-3-methoxypyrrolidin-1-yl)pent-2-enoyl)piperazin-2-yl)acetonitrile]
20 | < 0.01 | CO[C@H]1CCN([C@H](C)/C=C/C(=O)N2CCN(c3nc(OC[C@@]45CCCN4C[C@H](F)C5)nc4c(F)c(-c5cccc6ccc(F)c(Cl)c56)ncc34)C[C@@H]2CC#N)C1 [Compound 20, 2-((S)-4-(7-(8-chloro-7-fluoronaphthalen-1-yl)-8-fluoro-2-(((2R,7aS)-2-fluorotetrahydro-1H-pyrrolizin-7a(5H)-yl)methoxy)pyrido[4,3-d]pyrimidin-4-yl)-1-((R,E)-4-((S)-3-methoxypyrrolidin-1-yl)pent-2-enoyl)piperazin-2-yl)acetonitrile]
21 | 0.01 to 0.1 | C[C@H](/C=C/C(=O)N1CCN(c2nc(OCC34CCCN3CCC4)nc3c2CCN(c2cccc4cccc(Cl)c24)C3)C[C@@H]1CC#N)N1CCOCC1 [Compound 21]
22 | 0.01 to 0.1 | C[C@@H](/C=C/C(=O)N1CCN(c2nc(OCC34CCCN3CCC4)nc3c2CCN(c2cccc4cccc(Cl)c24)C3)C[C@@H]1CC#N)N1CCOCC1 [Compound 22]
23 | 0.01 to 0.1 | C[C@H](/C=C/C(=O)N1CCN(c2nc(OC[C@@]34CCCN3C[C@H](F)C4)nc3c(F)c(-c4cccc5cccc(Cl)c45)ncc23)C[C@@H]1CC#N)N1CCOCC1 [Compound 23]
24 | 0.01 to 0.1 | C[C@@H](/C=C/C(=O)N1CCN(c2nc(OC[C@@]34CCCN3C[C@H](F)C4)nc3c(F)c(-c4cccc5cccc(Cl)c45)ncc23)C[C@@H]1CC#N)N1CCOCC1 [Compound 24]
25 | 0.01 to 0.1 | C[C@H](/C=C/C(=O)N1CCN(c2nc(OC[C@@]34CCCN3C[C@H](F)C4)nc3c(F)c(-c4cccc5cccc(Cl)c45)ncc23)C[C@@H]1CC#N)N1C[C@H]2C[C@@H]1CO2 [Compound 25]
26 | 0.01 to 0.1 | C[C@@H](/C=C/C(=O)N1CCN(c2nc(OC[C@@]34CCCN3C[C@H](F)C4)nc3c(F)c(-c4cccc5cccc(Cl)c45)ncc23)C[C@@H]1CC#N)N1C[C@H]2C[C@@H]1CO2 [Compound 26]
27 | 0.01 to 0.1 | CC(/C=C/C(=O)N1CCN(c2nc(OC[C@@]34CCCN3C[C@H](F)C4)nc3c(F)c(-c4cccc5cccc(Cl)c45)ncc23)C[C@@H]1CC#N)N1C2COCC1C2 (stereo partly drawn) [Compound 27]
28 | 0.01 to 0.1 | CC(/C=C/C(=O)N1CCN(c2nc(OC[C@@]34CCCN3C[C@H](F)C4)nc3c(F)c(-c4cccc5cccc(Cl)c45)ncc23)C[C@@H]1CC#N)N1CC[C@H](F)C1 (stereo partly drawn) [Compound 28]
29 | < 0.01 | CC(/C=C/C(=O)N1CCN(c2nc(OC[C@@]34CCCN3C[C@H](F)C4)nc3c(F)c(-c4cccc5cccc(Cl)c45)ncc23)C[C@@H]1CC#N)N1CC[C@@H](F)C1 (stereo partly drawn) [Compound 29, 2-((2S)-4-(7-(8-chloronaphthalen-1-yl)-8-fluoro-2-(((2R,7aS)-2-fluorotetrahydro-1H-pyrrolizin-7a(5H)-yl)methoxy)pyrido[4,3-d]pyrimidin-4-yl)-1-((E)-4-((R)-3-fluoropyrrolidin-1-yl)pent-2-enoyl)piperazin-2-yl)acetonitrile]
30 | 0.01 to 0.1 | C[C@H](/C=C/C(=O)N1CCN(c2nc(OC[C@@]34CCCN3C[C@H](F)C4)nc3c(F)c(-c4cccc5cccc(Cl)c45)ncc23)C[C@@H]1CC#N)N1[C@@H]2CC[C@H]1COC2 [Compound 30, 2-((S)-1-((R,E)-4-((1R,5S)-3-oxa-8-azabicyclo[3.2.1]octan-8-yl)pent-2-enoyl)-4-(7-(8-chloronaphthalen-1-yl)-8-fluoro-2-(((2R,7aS)-2-fluorotetrahydro-1H-pyrrolizin-7a(5H)-yl)methoxy)pyrido[4,3-d]pyrimidin-4-yl)piperazin-2-yl)acetonitrile]
